Earlier results as cited in patent US20120211706A1, “POLYDENTATE LIGAND METAL COMPLEX” (SUMITOMO CHEMICAL COMPANY, LIMITED, priority 2009, published 2012).
Counter-ions that a name gives are not always drawn.

Conditions: 1N aqueous sulfuric acid solution

For C=C[C@H]1C[N@@]2CC[C@H]1C[C@H]2[C@H](O)c1ccnc2ccc(OC)cc12 [quinine sulfate], the “emission quantum yield of standard sample” value is given as 55%.
